Values after ≈ are worked out from the molar mass of the structure shown.
Test: Solubility in o-dichlorobenzene by UV-vis absorbance at 360 nm
Conditions: for solubility in o-dichlorobenzene: room temperature (about 22° C.)

Compound | solubility in o-dichlorobenzene | solubility in common organic solvents (in words, compared to the fullerenes according to the invention)
CCCCCCC1c2ccccc2C(CCCCCC)C23c4c5c6c7c8c9c(c%10c%11c2c2c4c4c%12c5c5c6c6c8c8c%13c9c9c%10c%10c%11c%11c2c2c4c4c%12c%12c5c5c6c8c6c8c%13c9c9c%10c%10c%11c2c2c4c4c%12c5c6c5c8c9c%10c2c45)C713 (centres unmarked) [Fullerene 4] | 45 mg/mL (≈ 45.3 mM) | 
CCCCC1c2ccccc2C(CCCC)C23c4c5c6c7c8c9c(c%10c%11c2c2c4c4c%12c5c5c6c6c8c8c%13c9c9c%10c%10c%11c%11c2c2c4c4c%12c%12c5c5c6c8c6c8c%13c9c9c%10c%10c%11c2c2c4c4c%12c5c6c5c8c9c%10c2c45)C713 (centres unmarked) [Fullerene 3] | 9.3 mg/mL (≈ 9.92 mM) | 
CCCCCCCC1c2ccccc2C(CCCCCCC)C23c4c5c6c7c8c9c(c%10c%11c2c2c4c4c%12c5c5c6c6c8c8c%13c9c9c%10c%10c%11c%11c2c2c4c4c%12c%12c5c5c6c8c6c8c%13c9c9c%10c%10c%11c2c2c4c4c%12c5c6c5c8c9c%10c2c45)C713 (centres unmarked) [Fullerene 5] | 20 mg/mL (≈ 19.6 mM) | 
c1ccc2c(c1)CC13c4c5c6c7c8c9c(c%10c%11c1c1c%12c4c4c%13c5c5c7c7c8c8c%14c9c%10c9c%10c%11c1c1c%11c%12c4c4c%12c%13c5c5c7c7c8c8c%14c9c9c%10c1c1c%11c4c4c%12c5c7c5c8c9c1c45)C63C2 (centres unmarked) [oQDM-C60, reference compound] | 5.8 mg/mL (≈ 7.03 mM) | lower solubility
